Data published in patent US20220226372A1 (priority 2019, published 2022).
Entries after “also recorded” stand apart in the source; their conditions may differ. Where two headings read alike, the source gives them in different places.

Tests used:
HL60 cells [1] = assay type: cell-based, Human
HL60 cells [2] = assay type: cell-based, Human; remark: listed apart in the source
A20 cells [3] = assay: GSH production in A20 cultured cells; assay type: cell-based, mouse; conditions: 48 h, As2O3 at 1 μM, test 1
Experimental: (§1) Cells (1×10^5 per well) were seeded in 96-wells round bottom plates (Falcon, Corning, reference: 353077) and incubated for 48 hours with different experimental conditions in an incubator at 37° C. 5% CO2. Two plates were prepared in parallel to measure respectively the H2O2 production and A20 cell viability.
(§2) H2O2 production, GSH production and cell viability were measured using the same protocols as above-described for […].
(§3) Conditions of Treatments and Related Experimentations: 1 Test H2O2— 1 Test GSH • H2O2 or GSH production and cell survival: As2O3 (1 μM) with CuCl2 at 0.5; 1; 2 and 4 μM.

MRL/lpr mice = conditions: Bobé et al., Blood 2006; cited from earlier work
A20 cells [4] = assay: A20 cell viability; assay type: cell-based, mouse; conditions: 48 h; for Effect on A20 viability vs control: H2O2 experiment
Experimental: as §1, §2, §3

Treg and T17 balance = conditions: rheumatoid arthritis patients; Li et al. 2019; cited from earlier work
A20 cells [5] = assay: H2O2 production in A20 cultured cells; assay type: cell-based, mouse; conditions: 48 h, As2O3 at 1 μM, test 1
Experimental: as §1, §2, §3

[6] = tested on: chronic sclerodermatous Graft versus Host Disease
HL60 cells [7] = assay type: cell-based, Human; remark: listed apart in the source
caspase-1 = target: T1, caspase-1 (Homo sapiens, UniProt P29466); conditions: Maier et al., J. Immunol. 2014; cited from earlier work
T1 sequence (P29466 120-404): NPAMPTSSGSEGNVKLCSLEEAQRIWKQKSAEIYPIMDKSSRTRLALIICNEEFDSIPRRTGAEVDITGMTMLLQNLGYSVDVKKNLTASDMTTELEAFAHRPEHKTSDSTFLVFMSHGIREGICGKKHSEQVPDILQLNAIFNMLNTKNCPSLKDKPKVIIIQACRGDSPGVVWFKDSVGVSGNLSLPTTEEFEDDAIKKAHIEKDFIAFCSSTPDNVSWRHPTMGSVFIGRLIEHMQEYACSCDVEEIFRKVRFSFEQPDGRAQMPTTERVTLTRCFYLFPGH

[8] = tested on: C57BL6 mice splenic cells; assay type: cell-based, mouse
BALB/c mice = assay: Copper cytotoxicity assessment in mice; assay type: in vivo, mouse; conditions: copper 0.2 and 0.5 μg/g, 5 times a week for 5 weeks
Experimental: To this aim, we injected a lower dose of copper (0.2 and 0.5 μg/g) 5 times a week for 5 weeks to a new series of BALB/c mice. We observed the mice every day, monitored their weight and followed their survival to evaluate copper toxicity.

[9] = Allogeneic + As2O3 2.5 μg/g, 9 mice
[10] = Allogeneic + As2O3 5 μg/g, 5 mice

For `[Cl][Mn][Cl]` [MnCl2], the “Cell survival: As2O3 + cations vs As2O3” value (HL60 cells [1]) was “Not significant”, the “Cell survival: cations vs control” value (HL60 cells [1]) was “Not significant” and the “H2O2 Production: As2O3 + cations vs As2O3” value (“H2O2 Production … vs As2O3” below) (HL60 cells [2]) was 1 µM. The “H2O2 Production: cations vs control” value (HL60 cells [2]) was 1 µM.
For `[Cl-].[Cl-].[Zn+2]` [ZnCl2], the “Cell survival: As2O3 + cations vs As2O3” value (HL60 cells [1]) was “no significant and reproducible effect; also recorded: Not significant”, the “Cell survival: cations vs control” value (HL60 cells [1]) was “Not significant” and the “H2O2 Production … vs As2O3” value (HL60 cells [2]) was “Not significant”.
With `O=S(=O)([O-])[O-].[Zn+2]` [ZnSO4] the “Cell survival: As2O3 + cations vs As2O3” value (HL60 cells [1]) was “no significant and reproducible effect; also recorded: Not significant”.
In the case of Arsenic Trioxide [As2O3], the “Effect on GSH production vs control” value (A20 cells [3]) is listed as “significantly increased”, the “Survival of MRL/lpr mice” value (MRL/lpr mice) is listed as “significantly prolonged” and the “Effect on A20 cells viability vs control” value (A20 cells [4]; As2O3 at 1 μM, GSH experiment, test 1) is listed as “significantly reduced”. The “Effect on A20 viability vs control” value (A20 cells [4]; As2O3 at 1 μM, test 1) was “reduced”, the “Effect on A20 viability vs control” value (A20 cells [4]; As2O3 at 1 μM, test 2) was “significantly reduced” and the “Treg and T17 balance” value (Treg and T17 balance) was “improves”. The “Effect on H2O2 production vs control” value (A20 cells [5]) was “significantly increased”, the “Number of mice at the end (live mice)” value ([6]; Allogeneic + As2O3 2.5 μg/g i.p. 5 times a week for 5 weeks, 10 mice at the beginning) was 9 and the “Ear thickness (vasculitis)” value ([6]; Allogeneic + As2O3 2.5 μg/g vs allogeneic) was “reduced”. For the same compound, the “Number of mice with alopecia” value [6, 9] was 3, the “Percentage of mice with alopecia” value [6, 9] was 33% and the “Number of mice at the end (live mice)” value ([6]; Allogeneic + As2O3 5 μg/g i.p. 5 times a week for 5 weeks, 7 mice at the beginning) was 5. The “Ear thickness (vasculitis)” value ([6]; Allogeneic + As2O3 5 μg/g vs allogeneic) was “decreased even more until reaching the same values as the ones of the syngeneic group”, the “Number of mice with alopecia” value [6, 10] was 1 and the “Percentage of mice with alopecia” value [6, 10] was 20%. The “Effect on GSH production vs control” value (HL60 cells [7]) was “significantly increases”, the “Inhibition of caspase-1 and the innate immune response” value (caspase-1) was “potent inhibitors” and the “Effect on the production of H2O2” value (HL60 cells [2]) was “not significant, but it increases at 5 μM”. For the same compound, the “Cell proliferation in the presence of mitogen” value [8] was “completely inhibits”.
With `O=S(=O)([O-])[O-].[Fe+2]` [FeSO4] the “Cell survival: As2O3 + cations vs As2O3” value (HL60 cells [1]) was “no significant effect; also recorded: Not significant”, the “Cell survival: cations vs control” value (HL60 cells [1]) was “no significant effect; also recorded: Not significant” and the “Cell proliferation: As2O3 + cations vs As2O3” value (“Cell proliferation … vs As2O3” below) [8] was “does not have a significant effect”.
With `O=S(=O)([O-])[O-].[Mn+2]` [MnSO4] the “Cell survival: As2O3 + cations vs As2O3” value (HL60 cells [1]) was “no real effect; also recorded: Not significant” and the “H2O2 Production … vs As2O3” value (HL60 cells [2]) was 0.25 µM.
In the case of `[Cl][Cu][Cl]` [CuCl2, copper(II) chloride], the “Cell survival in presence of AsI3” value (HL60 cells [1]) is reported as “no effect”, the “Cell survival: cations vs control” value (HL60 cells [1]; HL60 cells, 48 h (GSH experiment, Example 4), concentration(s) giving a significant difference, tests 1 and 2) is reported as “no significant effect; also recorded: Not significant” and the “Cell survival: cations vs control” value (HL60 cells [1]; HL60 cells, 48 h (H2O2 experiment), cation concentration(s) giving a statistically significant difference, tests 1 and 2) is reported as “no real effect; also recorded: Not significant”. The “Cell survival: As2O3 + cations vs As2O3” value (HL60 cells [1]; HL60 cells, 48 h, As2O3 1 μM (GSH experiment, Example 4), concentration(s) giving a significant difference, tests 1 and 2) was “no significant effect; also recorded: Not significant”, the “Cell survival: As2O3 + cations vs As2O3” value (HL60 cells [1]; HL60 cells, 48 h, As2O3 1 μM (H2O2 experiment), cation concentration(s) giving a statistically significant difference, tests 1 and 2) was “no real effect; also recorded: Not significant” and the “Effect on HL60 survival in the presence of As2O3” value (HL60 cells [1]; HL60 cells, 48 h, CuCl2 at 1 and 4 μM with As2O3 0.1-10 μM) was “no additional nor protective effect”. For the same compound, the “Cell survival: As2O3 + cations vs As2O3” value (A20 cells [4]; As2O3 1 μM (GSH experiment), CuCl2 concentration(s) giving a significant increase of viability, 1 test) was 4 µM, the “Death after 5 weeks” value (BALB/c mice) was “no death” and the “Mean weights vs control group receiving PBS” value (BALB/c mice) was “similar”. For the same compound, the “Mortality in the copper-treated groups” value ([6]; copper 2.5 or 10 μg/g i.p. 5 times a week, injections stopped at the end of day 4) was “significant loss of mice”, the “Mortality in the copper-treated groups” value ([6]; copper injected only twice a week from day 8 until the end of the 5 weeks) was “no more copper-treated mice died” and the “Effect on the GSH production induced by As2O3” value (HL60 cells [7]) was “reduce”. The “GSH Production: cations vs control” value (HL60 cells [7]) was “no significant effect; also recorded: Not significant”, the “Effect of AsI3 on H2O2 production: AsI3 + CuCl2 vs AsI3” value (HL60 cells [2]) was “significantly increased” and the “Effect on the H2O2 production induced by As2O3” value (HL60 cells [2]) was “significantly increases”. The “H2O2 Production: cations vs control” value (HL60 cells [2]) was “no significant effect; also recorded: Not significant”, the “Cell proliferation … vs As2O3” value ([8]; MLR, 48 h, As2O3 1 μM, cation concentration(s) giving a significant decrease of proliferation, test 1) was 4 μM (test 1) and the “Cell proliferation … vs As2O3” value ([8]; MLR, 48 h, As2O3 1 μM, cation concentration(s) giving a significant decrease of proliferation, tests 1 and 2) was 4 μM or 2 and 4. The “Proliferation of C57BL6 spleen cells in the presence of AsI3: CuCl2 concentrations with significant decrease” value ([8]; MLR, 48 h, AsI3 1 μM, test 2) was 4 µM.
